# “And” between values parts separate entries of the source, which are not always exact repeats. Identical values can stand only once. The source made the active and inactive calls.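 How the source made its calls: active means compounds giving half or more protection of infected cells from virus-caused growth loss, again on retest; inactive means the rest.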 Where a SMILES comes first, the peptide text is derived from it. The star is where a group is joined. Boc = CC(C)(C)OC(=O)*
# System: CEM cells HIV-1 protection, formazan growth assay
# Assay: NCI AIDS Antiviral Assay
# Conditions: for IC50: measured here: growth of uninfected CEM cells
# Method in brief: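 CEM (human) cells, HIV-1 infected vs uninfected, 5-point dosing, formazan growth read-out. Retest threshold 50% protection.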
SMILES,EC50 [µM],IC50,outcome
CC(C)CC[CH2][Pb]([CH2]CCC(C)C)([CH2]CCC(C)C)[O]C(=O)C(Cl)(Cl)Cl,> 200,3.09 µM,
COc1ccccc1OCC(COC(=O)Nc1ccc(C)cc1)OC(=O)Nc1ccc(C)cc1 (stereo not given),> 77.6,72.4 µM,
CCOP(=O)(OCC)/C(C#N)=C/c1ccc(-c2cc(C(F)(F)F)cc(C(F)(F)F)c2)o1,> 200,11.7 µM,
CC1=NNB(O)c2sccc21,> 562,145 µM,
Cc1nc2c(sc(=S)n2-c2ccccc2)c(=O)[nH]1,> 91.2,> 91.2 µM,
COc1ccc(C[C@H]2COC(=O)[C@@H]2Cc2ccc3c(c2)OCO3)cc1OC,> 200,19.1 µM,
CC(O[Si](c1ccccc1)(c1ccccc1)C(C)(C)C)[C@H](NC(=O)OC(C)(C)C)C(=O)O[Si](c1ccccc1)(c1ccccc1)C(C)(C)C (stereo not given in full),> 26.9,24 µM,
Brc1ccc2nncc(N3CC3)c2c1,,,inactive
O=C(CC(=O)N1N=C(c2ccccc2)C(N=Nc2ccc(Cl)cc2)C1=O)Nc1ccccc1Cl (stereo not given),> 38,> 38 µM,
N=C(N)n1[nH]c2c(c1=O)CCCC2,> 200,> 200 µM,
CC(C)C1=C(O)C2=C(C(=O)C1=O)C1(C)CCCC(C)(C)C1CC2O (stereo not given),> 200,14.5 µM and 13.8 µM,
CC(C)c1ccccc1NC(=O)CCc1n[nH]c(=S)o1,> 324,> 324 µM,
CNC(=O)Oc1ccc(C(=O)OCCO)cc1,> 200,95.5 µM,
COC(=O)/C=C(/C(=O)OC)c1c(C)cc2c(C)cc(C)cc(C)c1-2,> 200,10.7 µM,
CC(C)OP(=O)(CP(=O)(OC(C)C)OC(C)C)OC(C)C.[CH3][Sn]([Br])([Br])[Br],> 347,> 347 µM,
CC(C)=CCC[C@@H](C)c1c(O)c(O)c(C)c2nccnc12,> 200,38 µM,
Nc1ccccc1S(=O)(=O)c1ccccc1,,,active
CC1CC/C(=C\c2ccc(F)cc2)C2=C1C(c1ccc(F)cc1)NC(=S)N2 (stereo not given),> 200,16.6 µM,
Cc1ccc(Nc2nc3c(s2)C(=O)c2ccccc2C3=O)cc1,> 16.2,6.17 µM,
Cc1ccc(S(=O)(=O)N2CCCCC2)cc1,> 200,72.4 µM,
CN(NC(=O)/C(=C/c1ccc(O)cc1)NC(=O)c1ccccc1)c1ccnc2cc(Cl)ccc12,> 200,10.2 µM,
CCCN(CCC)C(=O)C(=O)c1c(N)[nH]n(-c2ccccc2)c1=O,,,inactive

SMILES,EC50 [µM],IC50,outcome
NC(=S)N/N=C/C(F)(F)F,> 1450,79.4 µM,
O=C(Nc1ccc(S(=O)(=O)Nc2nccs2)cc1)c1cccnc1Nc1cccc(Cl)c1,,,inactive
Cc1cc(=O)c2c(o1)-c1ccccc1C(c1ccccc1)c1ccccc1-2 (stereo not given),1.51,25.1 µM,
C=C(CCC(Cl)C(COC)OC(CCC)OCC)[Si](C)(C)C (stereo not given),> 38.9,> 38.9 µM,
CO/C=C/CCCNCc1ccccc1,> 457,> 457 µM,
CCCCOC(=O)C(=O)C(CC(C(=O)Cc1ccccc1)c1ccccc1)C(=O)C=C(C)C (stereo not given),> 112,> 112 µM,
OCc1cc[te]c1,,,inactive
COc1ccc(Br)c(CCC(CO)C2=CCC3(CC2)OCCO3)c1 (stereo not given),15.8,87.1 µM,
COc1cc(C2SC(N)=Nc3c2c(C)nn3C(=O)c2ccc(Cl)cc2)cc(OC)c1OC (stereo not given),> 200,> 200 µM,
Cc1cc(C)nc(NS(=O)(=O)c2ccc(Nc3c4ccccc4nc4c(C(=O)NNCCO)cccc34)cc2)n1,> 200,33.1 µM,
CC1(C)CC(=O)c2c(nc(SSc3nc4c(c(-c5ccc(Br)cc5)c3C#N)C(=O)CC(C)(C)C4)c(C#N)c2-c2ccc(Br)cc2)C1,18.6,162 µM,
CSCCC(NC(=O)C(CC(C)C)NC(=O)CNC(=O)OC(C)(C)C)C(=O)N(C)C (stereo not drawn) (Boc-Gly-Leu-Met-NMe2; configuration not given here),> 200,> 200 µM,
CCCC(=O)NC1CCc2cc(OC)c(OC)c(OC)c2-c2ccc(OC)c(=O)cc21 (stereo not given),> 2,0.0126 µM,
OC1CCOC1(O)c1ccccn1 (stereo not given),> 200,> 200 µM,
COC(=O)CC1(O)C(C=C(C)C)C(C(=O)OC)C(=O)C(C(=O)OC)C1C(=O)OC (stereo not given),> 200,> 200 µM,
CN1CCN(C)P1c1ccccc1,> 1290,> 1290 µM,
O=P1(c2ccccc2)Nc2cc(Cl)c(Cl)cc2N1,> 200,64.6 µM,
COC(C(=O)CN(C)C)(c1ccccc1)c1ccccc1,> 200,141 µM,
CC(=O)[CH-]C(C)=O.CC(=O)[CH-]C(C)=O.COc1cc2cc(C(=O)N3CC(CCl)c4ccc(NCCN)cc43)[nH]c2c(OC)c1OC.[Cr+5].[O-][Cl+3]([O-])([O-])[O-] (stereo not given),> 1,0.479 µM,
COc1cc(O)c(C(=O)/C=C/c2ccccc2)c(O)c1C1C=C(C)CCC1C(C)C (stereo not given),,,inactive
CC(CCC(=O)O)(c1ccc(O)c(CN(c2ccccc2)c2ccccc2)c1)c1ccc(O)c(CN(c2ccccc2)c2ccccc2)c1,,,inactive
CCCC(=O)[O-].CCCC(=O)[O-].N.N.N.N.[Co+3].[O-][Cl+3]([O-])([O-])[O-],,,inactive

SMILES,EC50 [µM],IC50,outcome
CC(=O)C1(c2ccccc2)CCCN(C)CC1 (stereo not given),,,inactive
CC(C)(C)C1CCC(CC(=O)O)(CC(=O)Nc2nccs2)CC1 (stereo not given),> 200,89.1 µM,
CC1=C(/C(C)=C\C(=O)O)CC2C(C)C(=O)CO[C@H]2C1 (stereo not given in full),,,inactive
CN(C)P1(=O)NCC(C)(C)CO1 (stereo not given),> 1290,> 1290 µM,
CC(CCc1nc2ccccc2[nH]1)C1CCC2C3CC[C@@H]4C[C@H](O)CC[C@]4(C)C3CC[C@]12C (stereo not given in full),> 50.1,> 50.1 µM,
CC1(C)CC(=O)C(CC(C(=O)C(=O)Nc2cc(C(F)(F)F)ccc2Cl)C(=O)c2ccco2)C(=O)C1 (stereo not given),> 51.3,42.7 µM,
CNC(=O)N(CCC#N)CCN(CCN(C(=O)NC)c1ccccc1)C(=O)NC,> 200,> 200 µM,
COc1ccc(CCNC(=O)Cc2cc(OC)c(OC)cc2Br)cc1OC,> 81.3,> 81.3 µM,
Cn1cnc(N2CCCC2)c(C#N)c1=S,> 200,> 200 µM,
CCOC(=O)c1c(Sc2ccc([N+](=O)[O-])cc2[N+](=O)[O-])nc2c3ccccc3ccn12,> 200,> 200 µM,
C=CCN1C(=O)CS/C1=N\NC(=O)c1c(C)nc2sccn12,> 741,240 µM,
Cc1ccccc1S(=O)(=O)Nn1cnc2ccc(S(=O)(=O)Nc3ccc(Cl)cc3)cc2c1=O,,,inactive
COC(=O)c1cc(=O)nc2n1C1OC(CO)C(O)C1O2 (stereo not given),> 200,> 200 µM,
COc1cccc(/C=N/[N-]C(N)=O)c1[O-].[Cu+2].c1ccncc1,> 5.75,> 5.75 µM,
O=C(c1c(O)cc(O)cc1O)c1c(-c2ccc(O)cc2)oc2cc(O)c3c(c12)O[C@H](c1ccc(O)cc1)[C@@H](O)C3,16.6,138 µM,
O=C1/C(=C/c2ccco2)NC(=S)N1CN1CCCCC1,> 200,32.4 µM,
O=Cn1c2ccccc2c2ccccc21,> 200,170 µM,
Cc1ccc(S(=O)(=O)OC2C3OC(C)(C)OC3OC2C2CSC(=S=O)S2)cc1 (stereo not given),> 67.6,> 67.6 µM,
O=C(NCCCCCCNC(=O)c1cc(-c2ccccc2)nc2ccccc12)c1cc(-c2ccccc2)nc2ccccc12,> 200,> 200 µM,
O=C(OOC(=O)c1ccccc1)c1ccccc1,> 200,> 200 µM,
CC(=Nc1ccncc1)C(C)=Nc1ccncc1,20.9,36.3 µM,
O=P(O)(O)C(NCC(O)CN1CCOCC1)P(=O)(O)O (stereo not given),> 200,> 200 µM,

SMILES,EC50 [µM],IC50,outcome
O=S(=O)(SSS(=O)(=O)c1ccccc1)c1ccccc1,> 75.9,> 75.9 µM,
Nc1ccn(C2OC(C(O)CO)C(O)C2O)c(=O)n1 (stereo not given),,,inactive
COc1ccc(NC2Oc3cc4c(cc3C(c3cc(OC)c(OC)c(OC)c3)C2C)OCO4)cc1 (stereo not given),> 20,0.398 µM,
COCCN1C(=O)C(NC(C)=O)[C@H]1COC(C)(C)C (stereo not given in full),> 661,> 661 µM,
O=C(Cc1ccccc1CCO)NCCc1ccccc1,> 200,> 200 µM,
c1cc(-c2cscc2-c2ccsc2)cs1,> 200,110 µM,
C/C(=N\NC(C)(C)C)c1sc(-c2nc(C)c(/C(C)=N/NC(C)(C)C)s2)nc1C,> 44.7,> 44.7 µM,
N#CC12CCC1C1CCCCC12N1CCSCC1 (stereo not given),,,inactive
CCOC(=O)C1=C(NC(C)(C)C)OCC1=O,,,inactive
CC1OC(OC2C(Oc3c(-c4ccc(O)c(O)c4O)oc4cc(O)ccc4c3=O)OC(CO)C(O)C2O)C(O)C(O)C1O (stereo not given),> 200,21.9 µM,
CC(=O)Nc1ccc(/C=C2\SC(=S)N(/C=C(\C(C)=O)C(N)=O)C2=O)cc1,> 200,72.4 µM,
CCOC(=O)c1cn2c(ccc3sc4ccccc4c(=O)c32)n1,> 200,> 200 µM,
COc1ccc(-c2nnc3cc(C)n4nnnc4n23)cc1OC,> 200,> 200 µM,
COc1ccc(NC(=O)COC(=O)c2cccc3c(=O)c4ccccc4[nH]c23)cc1,,,inactive
S=C1CC(c2ccc(Sc3ccccc3)cc2)=Nc2ccccc2N1,> 200,75.9 µM,
Cc1ccc(C(=O)N2CCCCC2)cc1N=NN(C)C,> 263,240 µM,
CC(=O)OCC1OC(OC(C)=O)C(On2nnc3c(-c4ccccc4)c(C)nn32)C(OC(C)=O)C1OC(C)=O (stereo not given),> 60.3,31.6 µM,
N#C/C(=C\c1ccc([N+](=O)[O-])cc1)C(=O)c1ccccc1,> 45.7,24.5 µM,
COc1cc2c(cc1OC)C1c3ccccc3CCCN1CC2 (stereo not given),> 200,123 µM,
Cc1ccc(S(=O)(=O)c2[nH]cc(-c3c[nH]c(S(=O)(=O)c4ccc(C)cc4)c3C3CCCCC3)c2C2CCCCC2)cc1,,,inactive
Cc1cccc2[s+]snc12,> 245,75.9 µM,
CCOP(=O)(OCC)C(C#N)Cc1ccco1 (stereo not given),41.7,> 200 µM,

# From PubChem BioAssay AID179 (DTP/NCI, 2004)
